Reference: publication PMC6153520, “Proteasome inhibition and mechanism of resistance to a synthetic, library-based hexapeptide” (Investigational New Drugs, 2018)
Where a SMILES comes first, the peptide text is derived from it. [ ]: non-standard residue; d: D form. The star is where a group is joined. His(τ-Bzl) = N[C@@H](Cc1cn(Cc2ccccc2)cn1)C(=O)O; Nle = CCCC[C@H](N)C(=O)O; NHBn = c1ccc(CN*)cc1; Bn = c1ccc(C*)cc1; OtBu = CC(C)(C)O*; tBu = CC(C)(C)*

Experiments:
[1] = system: THP1/BTZ200; assay: Growth inhibition assay (72 h, trypan blue); type: cell-based, human; conditions: relative to IC50 in THP1/WT
Procedure: (§1) Human monocytic/macrophage THP1 cells (ATTC, Manassas, USA) were cultured in RPMI-1640 medium supplemented with 5% fetal calf serum, 20 mM HEPES, 2 mM glutamine and 100 μg/ml penicillin/ streptomycin at 5% CO2 and 37 °C. Cell cultures were seeded at a density of 3 × 10^5 cells/ml and refreshed twice weekly. […] Some specific experiments also included THP1/BTZ100 cells that were cultured in the absence of BTZ for 6 months (further designated as THP1/BTZ (−100) cells). Mouse thymoma EL4 and human multiple myeloma H929 cells were cultured in RPMI-1640 medium supplemented with 8% fetal calf serum and 100 μg/ml penicillin/streptomycin at 5% CO2 and 37 °C.
(§2) Evaluation of drug sensitivity was carried out as described before. Cells were seeded at an initial density of 1.25 × 10^5 cells/ml in individual wells of a 24-well plate containing up to 50 μl of drug solutions. Inhibition of cell growth was determined after 72 h of incubation at 37 °C by determining the number of viable cells […] using trypan blue exclusion. The drug concentration required to inhibit cell growth by 50% compared to untreated controls was defined as the IC50.

[2] = system: THP1/BTZ50; assay: Growth inhibition assay (72 h, trypan blue); type: cell-based, human; conditions: relative to IC50 in THP1/WT
Procedure: as §1, §2

[3] = system: bortezomib-resistant THP1 cell lines; assay: Growth inhibition assay, cross-resistance; type: cell-based, human; conditions: relative to THP1/WT; 72 h growth inhibition
Procedure: as §1, §2

[4] = target: T1, chymotrypsin-like proteasome activity (Homo sapiens, UniProt P28074); assay: Proteasome-Glo cell-based assay in intact THP1 cells
T1 construct: chymotrypsin-like proteasome activity in intact THP1 cells after 1 h exposure; endogenous in cells; host or cells: THP1 (wild type)

[5] = target: T2, proteasome β5 subunit (Mus musculus, UniProt O55234); assay: Proteasome affinity labelling in EL4 cells; type: cell-based; conditions: EL4 cells pre-exposed for 2–24 h
T2 construct: Activity probing of constitutive and immunoproteasome β-subunits in EL4 cells; endogenous in cells; host or cells: EL4 mouse thymoma cells
Procedure: Proteasome activity profiling assays were performed as described using a close analog of the BodipyFL probe. Briefly, mouse EL4 thymoma cells were incubated at 37 °C for 2 or 24 h with increasing concentrations of 4A6, followed by a 1 h chase with 500 nM probe. […] Cells were harvested and lysed for 30 min in NP40 lysis buffer (50 mM Tris, pH 7.4, 150 mM NaCl, 1% NP40) at 4°C. The Bradford assay was used to measure protein content. Proteins were denatured by boiling in reducing sample buffer and analyzed by 12% SDS-PAGE using NuPAGE pre-cast gels (Invitrogen). Gels were then scanned for fluorescence emission using a ProXPRESS 2D Proteomic imaging system (Perkin Elmer). Images were analyzed using Totallab analysis software (Nonlinear Dynamics, Newcastle upon Tyne, UK). Sypro staining served as a loading control.

[6] = target: T3, proteasome purified from bovine liver (Bos taurus, UniProt Q32KL2); assay: 4A6 cleavage assay (MALDI-TOF); type: biochemical; conditions: 1 μg proteasome, 1 μg 4A6, pH 8.5, 45 °C, 16 h
T3 construct: Proteasome was purified from bovine liver as described previously; from tissue; host or cells: bovine liver
Procedure: Proteasome was purified from bovine liver as described previously. For digestion assays, 1 μg proteasome was incubated with 1 μg 4A6 in 50 μl of 50 mM Tris-HCl buffer pH 8.5 at 45 °C for 16 h. Subsequently, the reaction mixture was lyophilized and peptides purified using reversed-phase ZipTip®C18 tips (Millipore). The purified peptide mixture was mixed in a 1:1 ratio with 10 mg/ml 2,5-dihydroxybenzoic acid (DHB, Bruker Daltonik) matrix solution in 0.1% TFA and spotted onto a MALDI (matrix assisted laser desorption/ ionization) target plate. MALDI-TOF analysis was performed on an Autoflex, linear MALDI-TOF-MS (Bruker Daltonik GmbH, Bremen, Germany). Spectra were analyzed with flexAnalysis software (Bruker Daltonik).

[7] = system: THP1/WT cells; assay: Western blot, accumulation of ubiquitinated proteins; type: cell-based, human; conditions: 24 h exposure
Procedure: (§3) Western blot analysis to determine protein levels of (i) β1, β2 and β5 proteasome subunits and (ii) the accumulation of ubiquitinated proteins after treatment with 4A6 was performed essentially as described previously. Cells were harvested in the mid-log phase of growth and washed 3 times with ice-cold buffered saline pH 7.4. Total cell lysates of 5 × 10^6 cells were prepared by resuspension in 500 μl lysis buffer containing: 50 mM Tris-HCl (pH 7.6), 5 mM dithiotreitol, 20 μl PIC (Protease Inhibitor Cocktail; 1 tablet/ml H2O), 20% glycerol and 0.5% NP-40. The suspension was sonicated (MSE sonicator, amplitude 7, for 3 × 5 s with 20 s time intervals at 4 °C) and centrifuged in an Eppendorf micro centrifuge (5 min, 12,000 rpm, 4 °C). Protein content of the supernatant was determined by the Bio-Rad protein assay. 20–30 μg of total cell lysates were fractionated on a 10% polyacrylamide gel containing SDS and transferred onto a PVDF membrane. The membranes were pre-incubated overnight at 4 °C in blocking buffer (5% Bio-Rad Blocker in TBS-T; 10 mM Tris-HCl, pH 8.0, 0.15 M NaCl, 0.1% Tween-20) to prevent non-specific antibody binding. After blocking, the membranes were incubated for 1 h at room temperature with primary antibodies for proteasome subunit β1 (1:1000, PW8140), β2 (1:1000, PW8145) and β5 (1:1000, PW8895) or ubiquitin (1:1000, Santa-Cruz, SC-8017). An antibody to α-tubulin was used (1:1000, Santa Cruz, sc-8035) to check and normalize for any loading differences. After 3 washing steps with TBS-T, the membranes were incubated for 1 h with HRP-labelled donkey-anti-rabbit (1:6000, Amersham, UK) or goat-anti-mouse (1:6000, Dako, Glostrup, Denmark) as secondary antibody. Detection of antibody binding was followed by chemoluminescence using Supersignal (Pierce Biotechnology, Rockford, USA) according to the manufacturers’ instructions. […] The signal intensity was determined densitometrically using Quantity One software (Bio-Rad) and was expressed relative to the intensity of the α-tubulin signal.

[8] = system: bortezomib-resistant cells (THP1/BTZ200); assay: as above; type: cell-based, human; conditions: 24 h, same concentrations as in THP1/WT
Procedure: as §3

[9] = system: THP1 cells; assay: Growth inhibition with or without Ruthenium Red; type: cell-based, human; conditions: 72 h, with or without 25 μM Ruthenium Red
Procedure: as §2

[10] = system: P-glycoprotein (Pgp/ABCB1); design: method as in PMID 11289130; conditions: ref [32]; cited from earlier work
[11] = system: Multidrug Resistance-associated Protein 1 (MRP1/ABCC1); design: method as in PMID 11289130; conditions: ref [32]; cited from earlier work

potency fold lower than BTZ, chymotrypsin-like proteasome activity [4]: 28 fold | concentration giving complete inhibition of the β5 subunit [5]: > 5 µM
SMILES: CCCC[C@H](NC(=O)[C@@H](NC(=O)[C@H](Cc1cn(Cc2ccccc2)cn1)NC(=O)[C@@H](NC(C)=O)[C@@H](C)OC(C)(C)C)[C@@H](C)OCc1ccccc1)C(=O)N[C@@H](CCC(=O)OC(C)(C)C)C(=O)NCC(=O)NCc1ccccc1 [4A6, Ac-Thr(tBu)-His(Bzl)-Thr(Bzl)-Nle-Glu(OtBu)-Gly-Bza] (Ac-T(tBu)[His(τ-Bzl)]T(Bn)[Nle]E(OtBu)G-NHBn)
[Resistance Factor] THP1/BTZ200 [1]: 287 | [Resistance Factor] THP1/BTZ50 [2]: 44 | cross-resistance of bortezomib-resistant cell lines [3]: up to 287 fold | proteolytic cleavage by purified proteasomes [6]: predominantly cleaved at the P4-P5 position | accumulation of ubiquitinated proteins [7]: marked accumulation of ubiquitinated proteins | accumulation of ubiquitinated proteins [8]: did not provoke any accumulation of ubiquitinated proteins | effect of Ruthenium Red on growth inhibitory activity (protection) [9]: no effect | ability to reverse efflux pump MDR (ABCB1) [10]: lacked the ability to reverse efflux pump MDR | substrate of MDR efflux transporter ABCB1 [10]: substrate | ability to reverse efflux pump MDR (ABCC1) [11]: lacked the ability to reverse efflux pump MDR | substrate of MDR efflux transporter ABCC1 [11]: substrate
